Experiment [1] in a line: Activity at Lyp CCPGCC mutant expressed in Escherichia coli using pNPP as a substrate […].
Experiment [2] concerns the target T1, Tyrosine-protein phosphatase non-receptor type 22 (Homo sapiens) (UniProt Q9Y2R2).
T1 sequence (whole entry): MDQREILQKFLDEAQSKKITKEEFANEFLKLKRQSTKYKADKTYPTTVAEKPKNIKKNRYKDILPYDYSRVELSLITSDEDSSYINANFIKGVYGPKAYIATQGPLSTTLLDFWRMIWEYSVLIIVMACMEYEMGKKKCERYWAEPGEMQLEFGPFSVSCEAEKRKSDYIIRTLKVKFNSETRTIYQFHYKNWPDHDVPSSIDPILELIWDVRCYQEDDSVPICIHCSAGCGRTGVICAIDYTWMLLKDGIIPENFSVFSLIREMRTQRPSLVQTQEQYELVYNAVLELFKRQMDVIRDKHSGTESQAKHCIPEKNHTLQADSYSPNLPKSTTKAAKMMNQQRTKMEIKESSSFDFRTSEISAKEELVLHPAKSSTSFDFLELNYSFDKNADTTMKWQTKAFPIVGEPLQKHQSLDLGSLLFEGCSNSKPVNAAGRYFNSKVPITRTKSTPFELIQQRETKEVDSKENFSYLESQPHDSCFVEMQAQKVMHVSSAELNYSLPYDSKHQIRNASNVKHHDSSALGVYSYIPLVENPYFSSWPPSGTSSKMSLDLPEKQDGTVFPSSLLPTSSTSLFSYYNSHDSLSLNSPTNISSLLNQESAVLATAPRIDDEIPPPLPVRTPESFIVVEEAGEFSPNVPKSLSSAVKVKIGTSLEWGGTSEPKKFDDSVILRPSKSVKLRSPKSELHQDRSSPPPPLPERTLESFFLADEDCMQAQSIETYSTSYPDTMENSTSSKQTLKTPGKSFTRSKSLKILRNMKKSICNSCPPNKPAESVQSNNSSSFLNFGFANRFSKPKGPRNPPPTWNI
Description: Inhibition of Lyp expressed in Escherichia coli […].

A word on the kcat: it is the number of substrate molecules converted per active site and unit of time at saturation.

Regarding `O=C(O)c1ccccc1-c1c2ccc(=O)c([As]3SCCS3)c-2oc2c([As]3SCCS3)c(O)ccc12`, the kcat in experiment [1] stood at 0.057 s⁻¹. Moreover, the Activity result in experiment [2] is “Dose-dependent effect”.

For the origin of these results see ChEMBL document CHEMBL1177690, “Target-specific control of lymphoid-specific protein tyrosine phosphatase (Lyp) activity” (Bioorg Med Chem, 2010).
